Results published in patent US6403626B1, “Benzimidazole derivatives” (Synaptic Pharmaceutical Corporation, priority 1994, dated 2002).
Where two headings read alike, the source gives them in different places.

Experiments:
[1] = molecular target: T1, α1B Human Adrenergic Receptor (Homo sapiens, UniProt P35368); assay: Equilibrium competition binding, [3H] prazosin, membranes of transfected LM(tk-) cells
T1 construct: The entire coding region of α1B(1563 bp); expressed in transfected cells; host or cells: LM(tk-) cells
T1 sequence (P35368 1-520): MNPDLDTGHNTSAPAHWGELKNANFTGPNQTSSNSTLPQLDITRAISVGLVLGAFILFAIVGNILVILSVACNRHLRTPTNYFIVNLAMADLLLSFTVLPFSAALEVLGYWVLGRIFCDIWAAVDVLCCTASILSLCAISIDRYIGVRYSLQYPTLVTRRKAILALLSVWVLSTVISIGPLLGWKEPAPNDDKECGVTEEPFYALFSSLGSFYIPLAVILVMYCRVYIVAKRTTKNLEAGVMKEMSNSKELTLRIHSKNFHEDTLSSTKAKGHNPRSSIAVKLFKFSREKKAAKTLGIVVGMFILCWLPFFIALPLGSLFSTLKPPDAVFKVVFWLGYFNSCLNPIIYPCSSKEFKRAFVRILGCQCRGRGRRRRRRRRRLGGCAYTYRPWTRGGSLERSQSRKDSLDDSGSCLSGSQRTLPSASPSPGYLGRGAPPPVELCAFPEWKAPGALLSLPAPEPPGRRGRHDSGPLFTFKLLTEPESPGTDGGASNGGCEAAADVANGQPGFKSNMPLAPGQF
Protocol: (§1) Binding and functional assays were performed using stably transfected human alpha adrenergic receptors. Equilibrium competition binding assays were performed with membrane preparations from cultured LM(tk-) cells stably transfected with the cloned human adrenoceptor subtypes except for α2b, which was expressed in Y-1 cells, using [^3H] prazosin for α1 receptors and [^3H] rauwolscine for α2 receptors.
(§2) Transfected cells from culture flasks were scraped into 5 ml of 5 mM Tris-HCl, 5 mM EDTA, pH 7.5, and lysed by sonication. The cell lysates were centrifuged at 1000 rpm for 5 min at 4° C., and the supernatant was centrifuged at 30,000×g for 20 min at 4° C. The pellet was suspended in 50 mM Tris-HCl, 1 mM MgCl2, and 0.1% ascorbic acid at pH 7.5. Binding of α2 antagonist [^3H] rauwolscine ([…]) to membrane preparations of LM(tk-) cells was done in a final volume of 0.25 ml and incubated at 37° C. for 20 min. Nonspecific binding was determined in the presence of 10 μM phentolamine. The reaction was stopped by filtration through GF/B filters using a cell harvester.
The construct involved ligating the full-length containing EcoRI brainstem cDNA fragment from ZapII into the expression vector. The stable cell lines were selected as described above.

[2] = molecular target: T2, α1A Human Adrenergic Receptor (Homo sapiens, UniProt P25100); assay: as above
T2 construct: expressed in transfected cells; host or cells: LM(tk-) cells
T2 sequence (P25100 1-572): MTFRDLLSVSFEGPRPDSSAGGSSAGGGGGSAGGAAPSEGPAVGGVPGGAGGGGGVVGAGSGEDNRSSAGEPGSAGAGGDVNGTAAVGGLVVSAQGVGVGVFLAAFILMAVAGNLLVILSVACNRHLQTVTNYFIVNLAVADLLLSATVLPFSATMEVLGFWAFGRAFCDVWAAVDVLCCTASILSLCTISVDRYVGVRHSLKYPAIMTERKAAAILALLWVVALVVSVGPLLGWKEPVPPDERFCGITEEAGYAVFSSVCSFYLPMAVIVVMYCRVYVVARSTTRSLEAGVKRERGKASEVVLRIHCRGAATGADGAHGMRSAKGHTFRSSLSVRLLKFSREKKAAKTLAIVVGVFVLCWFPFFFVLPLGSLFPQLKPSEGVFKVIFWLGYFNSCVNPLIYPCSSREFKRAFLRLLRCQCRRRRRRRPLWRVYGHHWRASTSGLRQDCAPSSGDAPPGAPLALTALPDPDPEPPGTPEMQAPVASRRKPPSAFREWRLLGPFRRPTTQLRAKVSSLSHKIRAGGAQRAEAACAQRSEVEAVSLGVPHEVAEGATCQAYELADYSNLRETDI
Protocol: as §1, §2
(§3) Stable cell lines were selected as described above.

[3] = molecular target: T3, α2B Human Adrenergic Receptor (Homo sapiens, UniProt P18089); assay: Equilibrium competition binding, [3H] rauwolscine, membranes of transfected Y-1 cells
T3 construct: expressed in transfected cells; host or cells: Y-1 cells
T3 sequence (P18089 1-450): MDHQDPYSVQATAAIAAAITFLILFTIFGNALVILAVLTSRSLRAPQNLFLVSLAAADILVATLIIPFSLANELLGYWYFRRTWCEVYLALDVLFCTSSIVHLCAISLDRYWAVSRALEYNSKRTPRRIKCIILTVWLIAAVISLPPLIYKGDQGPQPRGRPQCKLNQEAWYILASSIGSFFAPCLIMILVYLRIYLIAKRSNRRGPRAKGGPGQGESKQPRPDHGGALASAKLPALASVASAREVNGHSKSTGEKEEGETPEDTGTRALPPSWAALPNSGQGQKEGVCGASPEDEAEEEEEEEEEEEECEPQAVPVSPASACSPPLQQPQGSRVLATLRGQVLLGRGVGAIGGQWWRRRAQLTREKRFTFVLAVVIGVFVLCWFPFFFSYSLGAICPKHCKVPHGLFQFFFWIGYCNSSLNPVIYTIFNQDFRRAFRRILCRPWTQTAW
Protocol: as §1, §3, §2

[4] = molecular target: T4, α2C Human Adrenergic Receptor (Homo sapiens, UniProt P18825); assay: Equilibrium competition binding, [3H] rauwolscine, membranes of transfected LM(tk-) cells
T4 sequence (P18825 1-462): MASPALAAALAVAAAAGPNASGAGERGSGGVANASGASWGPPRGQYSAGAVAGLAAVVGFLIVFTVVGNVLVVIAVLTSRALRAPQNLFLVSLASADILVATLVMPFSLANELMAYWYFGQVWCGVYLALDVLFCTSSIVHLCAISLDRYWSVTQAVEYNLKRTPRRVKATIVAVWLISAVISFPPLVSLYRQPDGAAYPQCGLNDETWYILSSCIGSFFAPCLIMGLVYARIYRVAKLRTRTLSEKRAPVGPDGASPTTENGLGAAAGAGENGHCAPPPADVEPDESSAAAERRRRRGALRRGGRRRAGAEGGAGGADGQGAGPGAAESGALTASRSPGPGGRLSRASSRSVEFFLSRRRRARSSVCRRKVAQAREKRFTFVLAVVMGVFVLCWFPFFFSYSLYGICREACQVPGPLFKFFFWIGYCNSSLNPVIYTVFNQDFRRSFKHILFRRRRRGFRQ

[5] = molecular target: T5, α1C Human Adrenergic Receptor (Homo sapiens, UniProt P35348); assay: Equilibrium competition binding, [3H] prazosin, membranes of transfected LM(tk-) cells; conditions: cloned human receptor, [3H] prazosin; for Ki: read-out: pKi Alpha-1 C (converted)
T5 construct: expressed in transfected cells; host or cells: LM(tk-) cells
T5 sequence (P35348 1-466): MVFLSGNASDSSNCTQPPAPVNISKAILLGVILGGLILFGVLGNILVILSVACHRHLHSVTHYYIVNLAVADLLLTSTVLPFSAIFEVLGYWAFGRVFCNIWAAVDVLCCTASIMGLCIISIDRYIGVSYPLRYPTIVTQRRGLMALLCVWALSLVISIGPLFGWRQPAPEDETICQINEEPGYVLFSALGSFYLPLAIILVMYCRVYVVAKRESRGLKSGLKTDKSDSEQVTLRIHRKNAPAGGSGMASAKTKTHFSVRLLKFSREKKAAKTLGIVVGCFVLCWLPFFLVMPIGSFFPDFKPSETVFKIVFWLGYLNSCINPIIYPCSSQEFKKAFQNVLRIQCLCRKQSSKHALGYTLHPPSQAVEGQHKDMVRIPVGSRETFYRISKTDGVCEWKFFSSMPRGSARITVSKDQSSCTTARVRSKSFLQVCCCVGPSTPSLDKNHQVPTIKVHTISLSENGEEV
Protocol: as §1, §2
The construct involved ligation three partial overlapping fragments: a 5′ 0.6 kb HincII genomic clone, a central 1.8 EcoRI hippocampal cDNA clone, and a 3′ 0.6 Kb PstI genomic clone. The hippocampal cDNA fragment overlaps with the 5′ and 3′ genomic clones so that the HincII and PstI sites at the 5 and 3′ ends of the cDNA clone, respectively, were utilized for ligation. This full-length clone was cloned into the KpnI site of the expression vector, using the 5′ and 3′ KpnI sites of the fragment, derived from vector (i.e., pBluescript) and 3′-untranslated sequences, respectively. Stable cell lines were selected as described above.

[6] = molecular target: T4, α2C Human Adrenergic Receptor; assay type: cell-based; parameters: The entire coding region of α2C (1383 bp), including 2 bp of 5′ UT and 400 bp of 3′ UT; expressed in transfected cells; host or cells: LM(tk-) cells; conditions: for I.A Alpha-2 C: functional cAMP assay
Protocol: as §1
The insert housing this coding region was an @ 1.8 kb Ncol/EcoRI human spleen genomic fragment which was end-blunted by either T4 polymerase or Klenow fragment of DNA polymerase. Stable cell lines were selected as described above.
(§4) The agonist activity (expressed as pEC50) was measured as a function of the ability to inhibit the forskolin-stimulated synthesis of cyclic adenosine monophosphate (cAMP). The stably transfected cells were incubated in Ham's F10 with 5 mM theophylline, 10 mM HEPES, 10 μM pargyline, and/or appropriate concentrations of forskolin for 20 min at 37° C. in 5% CO2. The tested compounds were then added to a final concentration of 0.001 nM to 1 μM and incubated for an additional 15 min at 37° C. in 5% CO2. The medium was aspirated and the reaction was stopped by the addition of 100 mM HCl . […] The plates are stored at 4° C. for 15 min and assayed to determine the linear concentration of cAMP. The appropriate dilution is interpolated from the standard curve of cold cAMP. The assessment of cAMP formation is determined by radioimmunoassay (cAMP radioimmunoassay kit; Advanced Magnetics, Cambridge, Mass.). Radioactivity was quantified using a Packard COBRA Auto Gamma counter, equipped with data reduction software.

[7] = molecular target: T3, α2B Human Adrenergic Receptor; assay type: cell-based
Protocol: as §1, §3, §4

[8] = cloned human receptor, [3H] prazosin, read-out: pKi Alpha-1 B (converted)
[9] = cloned human receptor, [3H] prazosin
[10] = cloned human receptor, [3H] rauwolscine
[11] = cloned human receptor, [3H] rauwolscine, read-out: pKi Alpha-2 B (converted)

## Cn1cnc2ccc(NC3=NCCN3)cc21 [Example 11, 3-Methyl-5-(2-imidazolin-2-ylamino)Benzimidazole]
[1]; [8]
  Ki: 35500 nM
[2]
  Ki: 10000 nM
[3]
  Ki: 224 nM
[4]
  Ki: 1120 nM
[5]
  Ki: 5750 nM

## CCCn1cnc2c(Br)c(NC3=NCCN3)ccc21 [Example 14, 1-Propyl-4-bromo-5-(imidazolin-2-ylamino)Benzimidazole]
[1]; [9]
  pKi Alpha-1 B: 4.69
[2]; [9]
  pKi Alpha-1 A: 5.63
[3]; [10]
  pKi Alpha-2 B: 6.66
[4]; [10]
  pKi Alpha-2 C: 6.64
[5]
  pKi Alpha-1 C: 6.21

## CCCn1cnc2ccc(NC3=NCCN3)cc21 [Example 15, 3-Propyl-5-(2-imidazolin-2-ylamino)Benzimidazole]
[1]; [8]
  Ki: 34700 nM
[2]
  Ki: 6460 nM
[3]; [11]
  Ki: 724 nM
[4]
  Ki: 871 nM
[5]
  Ki: 4900 nM

## CCCn1cnc2ccc(NC3=NCCN3)c(Br)c21 [Example 16, 3-Propyl-4-bromo-5-(2-imidazolin-2-ylamino)Benzimidazole]
[1]; [8]
  Ki: 513 nM
[2]
  Ki: 55 nM
[3]; [11]
  Ki: 12.3 nM
[5]
  Ki: 417 nM

## CC(C)n1cnc2cc(NC3=NCCN3)ccc21 [Example 17, 1-Isopropyl-5-(2-imidazolin-2-ylamino)Benzimidazole]
[1]
  Ki: 44700 nM
[2]
  Ki: 10500 nM
[3]
  Ki: 661 nM
[4]
  Ki: 832 nM
[5]
  Ki: 9120 nM

## CC(C)n1cnc2c(Br)c(NC3=NCCN3)ccc21 [Example 18, 1-Isopropyl-4-bromo-5-(2-imidazolin-2-ylamino)Benzimidazole]
[1]; [8]
  Ki: 20000 nM
[2]
  Ki: 2690 nM
[3]
  Ki: 372 nM
[4]
  Ki: 282 nM
[5]
  Ki: 891 nM

## CC(C)n1cnc2ccc(NC3=NCCN3)cc21 [Example 20, 3-Isopropyl-5-(2-imidazolin-2-ylamino)Benzimidazole]
[1]; [8]
  Ki: 58900 nM
[2]
  Ki: 14800 nM
[3]; [11]
  Ki: 724 nM
[4]
  Ki: 631 nM
[5]
  Ki: 11200 nM

## CC(C)n1cnc2ccc(NC3=NCCN3)c(Br)c21 [Example 21, 3-Isopropyl-4-bromo-5-(2-imidazolin-2-ylamino)Benzimidazole]
[1]; [8]
  Ki: 4680 nM
[2]
  Ki: 741 nM
[3]; [11]
  Ki: 21.4 nM
[5]
  Ki: 1200 nM

## CC(C)Cn1cnc2ccc(NC3=NCCN3)c(Br)c21 [Example 24, 3-Isobutyl-4-bromo-5-(2-imidazolin-2-ylamino)Benzimidazole]
[1]; [8]
  Ki: 4900 nM
[2]
  Ki: 309 nM
[3]
  Ki: 12.9 nM
[5]
  Ki: 251 nM

## Brc1cc(NC2=NCCN2)c(Br)c2[nH]cnc12 [Example 58, 4,7-Dibromo-5-(2-imidazolin-2-ylamino)Benzimidazole]
[6]
  EC50: 3.24 nM
  I.A Alpha-2 C: 1.00
[7]
  EC50: 28.2 nM
  I.A Alpha-2 B: 0.50
[3]
  Ki: 174 nM
[4]
  Ki: 30.9 nM
other
  melting point: 320 to 321 °C

## Cc1cc(NC2=NCCN2)c(Br)c2[nH]cnc12 [Example 59, 4-Bromo-7-methyl-5-(2-imidazolin-2-ylamino)Benzimidazole]
[6]
  EC50: 1.29 nM
  I.A Alpha-2 C: 1.00
[7]
  EC50: 40.7 nM
  I.A Alpha-2 B: 0.90
[3]
  Ki: 7.94 nM
[4]
  Ki: 16.6 nM
other
  melting point: 242 to 244 °C
